Data taken from PMC10762068, “Selective blockade of Cav1.2 (α1C) versus Cav1.3 (α1D) L-type calcium channels by the black mamba toxin calciseptine” (Nature Communications, 2024).
Positions of bridges follow the written chain, without caps; N, C: chain ends. No end group written: not given here.

Experiments:
[1] = tested on: SAN myocytes from Wild-Type mice; experiment: Spontaneous action potentials, perforated patch-clamp, SAN pacemaker myocytes; assay type: cell-based, mouse; conditions: for action potential duration APD30: 30% repolarization; for action potential duration APD30 / action potential duration APD50 / action potential duration APD70 / action potential duration APD90 / slope of linear part of diastolic depolarization (SLDD) / slope of exponential part of diastolic depolarization (SEDD) / action potential amplitude (APA) / action potential rate: mean ± SEM; for action potential duration APD50: 50% repolarization; for action potential duration APD70: 70% repolarization; for action potential duration APD90: 90% repolarization
Method: Hearts from Wild-Type and Cav1.3^−/− mice were removed under general anesthesia consisting of 0.01 mg/g xylazine (2% Rompun; Bayer AG) and 0.1 mg/g ketamine (Imalgène;Merial) and immersed in a pre-warmed (36 °C) Tyrode solution containing (mM): 140 NaCl, 5.4 KCl, 1 MgCl2, 1.8 CaCl2, 5.5 D-glucose, and 5 Hepes (adjusted to pH 7.4 with NaOH). […] SAN tissue was excised and transferred into a low-Ca^2+ solution containing (mM): 140 NaCl, 5.4 KCl, 0.5 MgCl2, 0.2 CaCl2, 1.2 KH2PO4, 50 taurine, 5.5 D-glucose, 1 mg/mL BSA, and 5 Hepes–NaOH (adjusted to pH 6.9 with NaOH) for 5 min. Then, enzymatic digestion was carried out for 20-25 min at 36 °C in the low-Ca^2+ solution containing LiberaseTH Research Grade (0.15 mg/mL; Roche, Mannheim, Germany) and elastase (0.5 mg/mL; Worthington, Lakewood, NJ, USA). Digestion was stopped by washing the SAN in a “Kraftbrühe” (KB) medium containing (mM) 100 K-glutamate, 10 K-aspartate, 25 KCl, 10 KH2PO4, 2 MgSO4, 20 taurine, 5 creatine, 0.5 EGTA, 20 D-glucose, 5 Hepes, and 1 mg/mL BSA (adjusted to pH 7.2 with KOH). Single SAN cells were then dissociated from the SAN tissue by manual agitation using a flame-forged Pasteur’s pipette. To recover the automaticity of the SAN cells, Ca^2+ was gradually reintroduced in the cell’s storage solution to a final concentration of 1.8 mM. SAN cells were then left to rest for 1 h before recordings.
For patch-clamp recordings of SAN myocytes, cells were harvested in custom-made chambers with glass bottoms for cell attachment. Cells were then super-fused with Tyrode’s solution warmed at 36 °C before recording. Action potentials and ionic currents were recorded using an Axon multi-clamp patch-clamp 700B amplifier. Voltage-gated L-type Ca^2+ currents (ICaL) were recorded using standard whole cell patch-clamp configuration. For recording ICaL, we used an extracellular recording solution contained (mM): 135 tetraethylammonium chloride (TEA-Cl), 10 4-aminopyridine (4-AP), 1 MgCl2, 0.03 tetrodotoxin (TTX), 1 g/L Glucose, 2 CaCl2, 10 Hepes, (adjusted to pH = 7.2 with TEAOH). […] Pacemaker activity was recorded by the perforated patch-clamp technique using escin (40 µg/ml). For recording cell automaticity glass pipettes were filled with the intracellular solution contained (mM): 80 K-Aspartate, 50 KCl, 1 MgCl2, 5 HEPES, 2 CaCl2, 5 EGTA, 3 ATP-Na+ salt; pH was adjusted to 7.2 with KOH. Escin was dissolved in sterile H2O and added to the intracellular solution right before each experiment.
We used an extracellular recording solution (Tyrode’s based) contained (mM): 140 NaCl, 5.4 KCl, 1 MgCl2, 1.8 CaCl2, 5 HEPES, 5.5 D-Glucose; pH was set to 7.4 with NaOH. AP parameters have been calculated as reported in Baudot et al.[10]. Data were analyzed using pCLAMP9 (Molecular Devices) and GraphPad Prism (GraphPad) software.
In all experiments of cellular electrophysiology, we employed synthetized analog of Cas, commercially available at Latoxan (ID: L8109). The native peptide was purified from the venom of Dendroaspis polylepis purchased from Latoxan, as previoulsly described. The pure peptide was obtained after gel filtration, cation exchange and C18 reversed phase chromatography. Its measured molecular mass (7036.26 Da average) was in accordance with the mass calculated from sequence data (7036.22 Da).

N-type Ca^2+ channel = conditions: cited from earlier work
Source text: (§1) Animal venoms constitute an immense reservoir for identification of new toxins and toxin-derived tools for modulating the physiological function of ion channels. In particular, toxins showing three-fingers molecular scaffold class include several cardiotoxic peptides that abound in snake venoms. Three fingers toxin peptides potently block a variety of proteins including nicotinic receptors, acetylcholinesterase, acid-sensitive ion channels (ASIC)[14], as well as cytotoxins that disrupt the lipid membrane. More than 30 years ago, M. Lazdunski ‘s group purified a 60-amino acid three- ...

T-type Ca^2+ channel = conditions: cited from earlier work
Source text: as §1

cardiac contractions = conditions: cited from earlier work
Source text: as §1

[2] = tested on: portal vein, thoracic aorta and uterine smooth muscle; conditions: cited from earlier work
Source text: as §1

[3] = tested on: skeletal muscle (Cav1.1) L-type Ca^2+ channel; conditions: cited from earlier work
Source text: as §1

[4] = tested on: voltage sensitive K^+ channels; conditions: cardiac ventricular cells, NlE115 neuroblastoma cells, RINmSF and HIT insulinomas, chicken dorsal root ganglia; cited from earlier work
Source text: as §1

[5] = tested on: voltage sensitive Na^+ channels; conditions: cardiac ventricular cells, NlE115 neuroblastoma cells, RINmSF and HIT insulinomas, chicken dorsal root ganglia; cited from earlier work
Source text: as §1

[6] = Cas 300 nM alone (n=9/N=4) or + Nife 3 µM (n=8/N=4)
[7] = Cas 1 µM alone (n=12/N=3) or + Nife 3 µM (n=9/N=3)

Sequence: RICYIHKASLPRATKTCVENTCYKMFIRTQREYISERGCGCPTAMWPYQTECCKGDRCNK (disulfide 3-22, 17-39, 41-52, 53-58 (inferred)) [Cas, calciseptine]
- effect on AP duration ([1]; Cas 300 nM): did not affect AP duration
- action potential duration APD30 [1, 6]: 28 ± 2 ms
- action potential duration APD50 [1, 6]: 46 ± 4 ms
- action potential duration APD70 [1, 6]: 66 ± 6 ms
- action potential duration APD90 [1, 6]: 98 ± 8 ms
- slope of linear part of diastolic depolarization (SLDD) ([1]; Cas 300 nM alone (n=9/N=4) or + Nife 3 µM (n=8/N=4), Ctrl 0.06 ± 0.01): ^$0.05 ± 0.01^p=0.0128 mV/ms
- slope of exponential part of diastolic depolarization (SEDD) ([1]; Cas 300 nM alone (n=9/N=4) or + Nife 3 µM (n=8/N=4), Ctrl 0.51 ± 0.09): ^$0.40 ± 0.04^p=0.0078 mV/ms
- action potential amplitude (APA) ([1]; Cas 300 nM alone (n=9/N=4) or + Nife 3 µM (n=8/N=4), Ctrl 83 ± 2): 75 ± 3 mV
- action potential rate ([1]; Cas 300 nM alone (n=9/N=4) or + Nife 3 µM (n=8/N=4), Ctrl 200 ± 21): ^$194 ± 19^p=0.0004 bpm
- effect on AP amplitude ([1]; Cas 300 nM and 1 µM): reduced AP amplitude
- effect on AP firing rate ([1]; Cas 300 nM and 1 µM): did not affect AP firing rate
- effect on maximum diastolic potential, threshold potential and upstroke velocity ([1]; Cas 300 nM or 1 µM): did not observe statistically significant differences
- effect on slopes of linear and exponential diastolic depolarization ([1]; Cas 300 nM or 1 µM): did not change
- effect on AP duration at 30% and 50% of repolarization ([1]; Cas 1 µM): had statistically significant effect
- action potential duration APD30 [1, 7]: 25 ± 2 ms
- action potential duration APD50 [1, 7]: 43 ± 3 ms
- action potential duration APD70 [1, 7]: 61 ± 3 ms
- action potential duration APD90 [1, 7]: 87 ± 4 ms
- slope of linear part of diastolic depolarization (SLDD) ([1]; Cas 1 µM alone (n=12/N=3) or + Nife 3 µM (n=10/N=3), Ctrl 0.07 ± 0.01): ^$0.06 ± 0.01^p=0.0187 mV/ms
- slope of exponential part of diastolic depolarization (SEDD) ([1]; Cas 1 µM alone (n=12/N=3) or + Nife 3 µM (n=10/N=3), Ctrl 0.48 ± 0.06): ^$0.50 ± 0.06^p=0.0002 mV/ms
- action potential amplitude (APA) ([1]; Cas 1 µM alone (n=12/N=3) or + Nife 3 µM (n=10/N=3), Ctrl 91 ± 2): 85 ± 3 mV
- action potential rate ([1]; Cas 1 µM alone (n=12/N=3) or + Nife 3 µM (n=10/N=3), Ctrl 218 ± 15): ^$213 ± 15^p<0.0001 bpm
- effect on N-type Ca2+ channel (N-type Ca^2+ channel): without affecting
- effect on T-type Ca2+ channel (T-type Ca^2+ channel): without affecting
- effect on cardiac contractions (cardiac contractions): completely eliminate cardiac contractions
- effect on smooth muscle contraction [2]: abolish all contraction
- effect on skeletal muscle (Cav1.1) L-type Ca2+ channel [3]: without affecting
- effect on voltage sensitive K+ channels [4]: does not affect
- effect on voltage sensitive Na+ channels [5]: does not affect
